What was measured:
Type in all cases: functional
SNB-19 [1] = assay: Growth inhibition of human SNB19 cells assessed as cell growth at 0.1 uM after 48 hrs by SRB assay; conditions: SNB-19, 48 h, read-out: Activity
HOP-62 [2] = assay: Growth inhibition of human HOP62 cells after 48 hrs by […] growth inhibition assay; conditions: HOP-62, 48 h
SK-MEL-5 [3] = assay: Growth inhibition of human SK-MEL-5 cells assessed as cell growth at 1 mM after 48 hrs by SRB assay; conditions: SK-MEL-5, 48 h, read-out: Activity
SNB-19 [4] = assay: Growth inhibition of human SNB19 cells assessed as cell growth at 100 uM after 48 hrs by SRB assay; conditions: SNB-19, 48 h, read-out: Activity
786-0 = assay: Growth inhibition of human 786-0 cells assessed as cell growth at 1 mM after 48 hrs by SRB assay; conditions: 786-0, 48 h, read-out: Activity
SNB-75 = assay: Growth inhibition of human SNB75 cells assessed as cell growth at 0.1 uM after 48 hrs by SRB assay; conditions: SNB-75, 48 h, read-out: Activity
NCI-H522 = assay: Growth inhibition of human NCI-H522 cells assessed as cell growth at 100 uM after 48 hrs by SRB assay; conditions: NCI-H522, 48 h, read-out: Activity
MDA-MB-435 = assay: Growth inhibition of human MDA-MB-435 cells after 48 hrs by SRB assay; conditions: MDA-MB-435, 48 h
OVCAR-8 [5] = assay: Growth inhibition of human OVCAR8 cells assessed as cell growth at 1 mM after 48 hrs by SRB assay; conditions: OVCAR-8, 48 h, read-out: Activity
CAKI-1 = assay: Growth inhibition of human Caki1 cells assessed as cell growth at 100 uM after 48 hrs by SRB assay; conditions: CAKI-1, 48 h, read-out: Activity
OVCAR-8 [6] = assay: Growth inhibition of human OVCAR8 cells assessed as cell growth at 100 uM after 48 hrs by SRB assay; conditions: OVCAR-8, 48 h, read-out: Activity
RXF 393 = assay: Growth inhibition of human RXF393 cells assessed as cell growth at 0.1 uM after 48 hrs by SRB assay; conditions: RXF 393, 48 h, read-out: Activity
HOP-92 [7] = assay: Growth inhibition of human HOP92 cells assessed as cell growth at 10 uM after 48 hrs by SRB assay; conditions: HOP-92, 48 h, read-out: Activity
A549 = assay: Growth inhibition of human A549 cells after 48 hrs by […] growth inhibition assay; conditions: A549, 48 h
OVCAR-4 = assay: Growth inhibition of human OVCAR4 cells assessed as cell growth at 100 uM after 48 hrs by SRB assay; conditions: OVCAR-4, 48 h, read-out: Activity
UO-31 = assay: Growth inhibition of human UO31 cells assessed as cell growth at 100 uM after 48 hrs by SRB assay; conditions: UO-31, 48 h, read-out: Activity
HOP-62 [8] = assay: Growth inhibition of human HOP62 cells assessed as cell growth at 0.1 uM after 48 hrs by SRB assay; conditions: HOP-62, 48 h, read-out: Activity
SK-MEL-2 = assay: Growth inhibition of human SK-MEL-2 cells assessed as cell growth at 0.1 uM after 48 hrs by SRB assay; conditions: SK-MEL-2, 48 h, read-out: Activity
SK-MEL-28 = assay: Growth inhibition of human SK-MEL-28 cells after 48 hrs by […] growth inhibition assay; conditions: SK-MEL-28, 48 h
KM12 = assay: Growth inhibition of human KM12 cells assessed as cell growth at 1 uM after 48 hrs by SRB assay; conditions: KM12, 48 h, read-out: Activity
LOX IMVI = assay: Growth inhibition of human LOXIMVI cells after 48 hrs by […] growth inhibition assay
PC-3 = assay: Growth inhibition of human PC3 cells assessed as cell growth at 10 uM after 48 hrs by SRB assay; conditions: PC-3, 48 h, read-out: Activity
OVCAR-3 [9] = assay: Growth inhibition of human OVCAR3 cells after 48 hrs by […] growth inhibition assay; conditions: OVCAR-3, 48 h
SF-539 = assay: Growth inhibition of human SF539 cells assessed as cell growth at 10 uM after 48 hrs by SRB assay; conditions: SF-539, 48 h, read-out: Activity
HOP-92 [10] = assay: Growth inhibition of human HOP92 cells assessed as cell growth at 100 uM after 48 hrs by SRB assay; conditions: HOP-92, 48 h, read-out: Activity
SK-MEL-5 [11] = assay: Growth inhibition of human SK-MEL-5 cells assessed as cell growth at 100 uM after 48 hrs by SRB assay; conditions: SK-MEL-5, 48 h, read-out: Activity
A498 = assay: Growth inhibition of human A498 cells assessed as cell growth at 1 mM after 48 hrs by SRB assay; conditions: A498, 48 h, read-out: Activity
COLO 205 = assay: Growth inhibition of human COLO205 cells assessed as cell growth at 100 uM after 48 hrs by SRB assay; conditions: COLO 205, 48 h, read-out: Activity
SR = assay: Growth inhibition of human SR cells assessed as cell growth at 10 uM after 48 hrs by SRB assay; conditions: read-out: Activity
OVCAR-3 [12] = assay: Growth inhibition of human OVCAR3 cells assessed as cell growth at 10 uM after 48 hrs by SRB assay; conditions: OVCAR-3, 48 h, read-out: Activity
BT-549 = assay: Growth inhibition of human BT549 cells after 48 hrs by […] growth inhibition assay; conditions: BT-549, 48 h
[13] = read-out: LC50 (the source's name)
[14] = read-out: pLC50 (the source's name) (converted)

## CCOC(=O)C[C@H]1[C@@H](O[Si](C)(C)C(C)(C)C)[C@H](n2cnc3c(NC(=O)Nc4ccccc4)ncnc32)O[C@@H]1CNC(=O)NC
SNB-19 [1]
  growth at 0.1 µM: 92%
HOP-62 [2]; read-out: GI50
  GI50: 8.96 µM
HOP-62 [2]; [13]
  CC50: 73.1 µM
HOP-62 [2]; read-out: TGI
  TGI: 26.4 µM
HOP-62 [2]; read-out: pGI50 (converted)
  GI50: 8.91 µM
HOP-62 [2]; [14]
  CC50: 72.4 µM
HOP-62 [2]; read-out: pTGI (converted)
  TGI: 26.3 µM
SK-MEL-5 [3]
  growth at 1000 µM: 11%
SNB-19 [4]
  growth at 100 µM: 82%
786-0
  growth at 1000 µM: -97%
SNB-75
  growth at 0.1 µM: 92%
NCI-H522
  growth at 100 µM: 32%
MDA-MB-435; read-out: GI50
  GI50: 6.21 µM
MDA-MB-435; read-out: LC50
  LC50: > 100 µM
MDA-MB-435; read-out: TGI
  TGI: > 100 µM
MDA-MB-435; read-out: pGI50 (converted)
  GI50: 6.17 µM
MDA-MB-435; read-out: pLC50 (converted)
  LC50: > 100 µM
MDA-MB-435; read-out: pTGI (converted)
  TGI: > 100 µM
OVCAR-8 [5]
  growth at 1000 µM: -4%
CAKI-1
  growth at 100 µM: 88%
OVCAR-8 [6]
  growth at 100 µM: 29%
RXF 393
  growth at 0.1 µM: 99%
HOP-92 [7]
  growth at 10 µM: 12%
A549; read-out: GI50
  GI50: 4.18 µM
A549; [13]
  CC50: 79.1 µM
A549; read-out: TGI
  TGI: 19.2 µM
A549; read-out: pGI50 (converted)
  GI50: 4.17 µM
A549; [14]
  CC50: 79.4 µM
A549; read-out: pTGI (converted)
  TGI: 19.1 µM
OVCAR-4
  growth at 100 µM: 53%
UO-31
  growth at 100 µM: 61%
HOP-62 [8]
  growth at 0.1 µM: 99%
SK-MEL-2
  growth at 0.1 µM: 102%
SK-MEL-28; read-out: GI50
  GI50: 6.85 µM
SK-MEL-28; [13]
  CC50: 48.7 µM
SK-MEL-28; read-out: TGI
  TGI: 20.2 µM
SK-MEL-28; read-out: pGI50 (converted)
  GI50: 6.92 µM
SK-MEL-28; [14]
  CC50: > 49 µM
SK-MEL-28; read-out: pTGI (converted)
  TGI: 20.4 µM
KM12
  growth at 1 µM: 112%
LOX IMVI; read-out: GI50
  GI50: 5.46 µM
LOX IMVI; [13]
  CC50: > 100 µM
LOX IMVI; read-out: TGI
  TGI: > 100 µM
LOX IMVI; read-out: pGI50 (converted)
  GI50: 5.5 µM
LOX IMVI; [14]
  CC50: > 100 µM
LOX IMVI; read-out: pTGI (converted)
  TGI: > 100 µM
PC-3
  growth at 10 µM: 103%
OVCAR-3 [9]; read-out: GI50
  GI50: 4.59 µM
OVCAR-3 [9]; [13]
  CC50: 91.3 µM
OVCAR-3 [9]; read-out: TGI
  TGI: 17.2 µM
OVCAR-3 [9]; read-out: pGI50 (converted)
  GI50: 4.57 µM
OVCAR-3 [9]; [14]
  CC50: 91.2 µM
OVCAR-3 [9]; read-out: pTGI (converted)
  TGI: 17 µM
SF-539
  growth at 10 µM: 103%
HOP-92 [10]
  growth at 100 µM: -32%
SK-MEL-5 [11]
  growth at 100 µM: 28%
A498
  growth at 1000 µM: -41%
COLO 205
  growth at 100 µM: 20%
SR
  growth at 10 µM: 85%
OVCAR-3 [12]
  growth at 10 µM: 116%
BT-549; read-out: GI50
  GI50: > 100 µM
BT-549; [13]
  CC50: > 100 µM
BT-549; read-out: TGI
  TGI: > 100 µM
BT-549; read-out: pGI50 (converted)
  GI50: > 100 µM
BT-549; [14]
  CC50: > 100 µM
BT-549; read-out: pTGI (converted)
  TGI: > 100 µM
